In ChEMBL document CHEMBL5113368, “Meroterpenoids produced by fungi: Occurrence, structural diversity, biological activities, and their molecular targets” (Eur J Med Chem, 2021):
pIC50: −log10 of the molar value. In brackets after ≈: the same amount, converted by molar mass.

Legend:
Bipolaris oryzae = assay: Antifungal activity against Cochliobolus miyabeanus assessed as fungal growth inhibition measured after 24 hrs by microscopic analysis; format: functional, organism-based
[1] = system: Clavibacter michiganensis subsp. sepedonicus; assay: Antibacterial activity against Clavibacter michiganensis subsp. sepedonicus assessed as inhibition of bacterial growth measured after 18 to 48 hrs; format: functional; conditions: time 18-48 hrs
Plasmodium falciparum = assay: Antimalarial activity multidrug-resistant Plasmodium falciparum K1 assessed as inhibition of parasite growth by [3H]-hypoxanthine incorporation assay; format: functional, organism-based
KB = assay: Cytotoxicity against human KB cells assessed as cell growth inhibition; format: functional, cell-based
NCI-H187 = assay: Cytotoxicity against human NCI-H187 cells assessed as cell growth inhibition; format: functional, cell-based
Beta-secretase 1 = Beta-secretase 1 (Homo sapiens, UniProt P56817); assay: Inhibition of BACE1 (unknown origin) using […] incubated in dark for 1 hr by fluorescence based analysis
Chain of Beta-secretase 1 (P56817 whole entry): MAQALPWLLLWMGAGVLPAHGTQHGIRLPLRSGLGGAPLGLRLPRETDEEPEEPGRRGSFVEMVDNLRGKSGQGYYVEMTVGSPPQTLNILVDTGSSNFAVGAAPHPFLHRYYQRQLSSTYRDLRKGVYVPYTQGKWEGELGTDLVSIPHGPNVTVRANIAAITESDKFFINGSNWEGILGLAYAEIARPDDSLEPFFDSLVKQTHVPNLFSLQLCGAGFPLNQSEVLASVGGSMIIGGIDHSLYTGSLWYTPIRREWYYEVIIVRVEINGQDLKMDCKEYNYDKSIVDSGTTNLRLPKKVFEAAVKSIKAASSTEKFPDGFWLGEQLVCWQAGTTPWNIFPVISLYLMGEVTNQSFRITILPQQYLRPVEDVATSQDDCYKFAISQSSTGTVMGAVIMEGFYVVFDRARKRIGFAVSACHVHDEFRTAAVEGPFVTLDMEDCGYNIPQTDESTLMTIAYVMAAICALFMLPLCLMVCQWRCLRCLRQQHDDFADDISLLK

[2] = Toxicity in brine shrimp assessed as induction of lethality; conditions: artemia salina; read-out: LD50 (the source's name)
[3] = Cytotoxicity against rat IEC-6 cells assessed as cell growth inhibition by WST-1 assay; format: toxicity, cell-based
[4] = Inhibition of rat intestinal alpha-glucosidase
[5] = Inhibition of rat intestinal sucrase
[6] = Inhibition of rat intestinal maltase
[7] = Antioxidant activity assessed as ABTS radical scavenging activity; format: functional
[8] = Antioxidant activity assessed as DPPH radical scavenging activity; format: functional
MGC-803 = assay: Cytotoxicity against human MGC-803 cells assessed as cell growth inhibition measured after 72 hrs by MTT assay; format: functional
Verticillium dahliae = assay: Antifungal activity Verticillium dahliae assessed as inhibition of fungal growth by microbroth dilution method; format: functional
Phytophthora nicotianae = assay: Antifungal activity Phytophthora parasitica assessed as inhibition of fungal growth by microbroth dilution method; format: functional
Bacillus subtilis = assay: Antibacterial activity against Bacillus subtilis assessed as reduction in microbial growth by modified broth dilution test; format: functional
[9] = system: Mycobacterium tuberculosis; assay: Antimycobacterial activity against Mycobacterium tuberculosis H37Ra assessed as inhibition of bacterial growth by microplate alamar blue assay; format: functional
[10] = molecular target: T1, Prostaglandin G/H synthase 2 (Homo sapiens, UniProt P35354); assay: Inhibition of human recombinant COX-2 pretreated with compound for 10 mins followed by substrate addition for 10 mins by fluorescent inhibitor screening assay
T1 sequence (P35354 whole entry): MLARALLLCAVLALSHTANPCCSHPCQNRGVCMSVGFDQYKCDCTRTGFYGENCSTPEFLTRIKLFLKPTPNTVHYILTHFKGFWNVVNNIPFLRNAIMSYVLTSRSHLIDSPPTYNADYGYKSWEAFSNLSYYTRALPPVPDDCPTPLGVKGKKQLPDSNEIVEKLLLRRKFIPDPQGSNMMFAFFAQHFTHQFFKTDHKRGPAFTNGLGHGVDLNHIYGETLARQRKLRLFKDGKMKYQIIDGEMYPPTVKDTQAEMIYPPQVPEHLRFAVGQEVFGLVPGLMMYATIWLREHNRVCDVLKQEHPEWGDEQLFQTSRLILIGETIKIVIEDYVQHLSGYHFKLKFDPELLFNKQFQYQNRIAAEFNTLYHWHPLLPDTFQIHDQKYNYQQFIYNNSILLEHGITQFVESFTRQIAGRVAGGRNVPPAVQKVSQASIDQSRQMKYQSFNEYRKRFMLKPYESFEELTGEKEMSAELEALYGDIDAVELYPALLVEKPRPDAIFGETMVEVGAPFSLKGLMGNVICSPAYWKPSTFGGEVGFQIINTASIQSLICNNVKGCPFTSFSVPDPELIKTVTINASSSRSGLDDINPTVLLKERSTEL

A549 = assay: Cytotoxicity against human A549 cells assessed as cell growth inhibition by CCK-8 method; format: functional, cell-based
HL-60 [11] = assay: Cytotoxicity against human HL-60 cells assessed as cell growth inhibition measured after 48 hrs by MTT assay; format: functional, cell-based; conditions: HL-60, 48 h
HL-60 [12] = assay: Cytotoxicity against human HL-60 cells assessed as cell growth inhibition measured after 24 hrs by MTT assay; format: functional, cell-based; conditions: HL-60, 24 h
THP-1 = assay: Cytotoxicity against human THP-1 cells assessed as cell growth inhibition measured after 24 hrs by MTT assay; format: functional, cell-based; conditions: THP-1, 24 h
[13] = Cytotoxicity against human Caco-2 cells assessed as cell growth inhibition measured after 24 hrs by MTT assay; format: toxicity, cell-based

`C/C=C(\C)C(=O)[C@H](C)C1=CC(=O)C2=C(O[C@@]3(C)CC[C@H]4OC(C(C)(C)O)CC[C@]4(C)[C@H]3C2)C1=O` (stereo partly specified) showed an IC50 (Bipolaris oryzae) of 0.1 µg/mL (≈ 0.212 µM).
With `CC1=CC[C@H]2C(C)(C)C(=O)CC[C@]2(C)[C@H]1C[C@@]12O[C@@H]1[C@H](O)C(CO)=C[C@H]2O` the MIC [1] was 9.48 µg/mL (≈ 25.2 µM).
In the case of `CC(=O)O[C@H]1C[C@@H](OC(C)=O)[C@@]2(C)[C@@H](CC[C@]3(C)[C@@H]2CC[C@]2(C)Oc4oc(C)cc(=O)c4C[C@@H]32)C1(C)C`, the pIC50 (Plasmodium falciparum) was 5.18, the pIC50 (KB) was 4.49 and the pIC50 (NCI-H187) was 4.49.
`C=C1[C@@]23C(=O)O[C@H](C)[C@@]2(O)C(=O)O[C@]1(C)[C@@H](O)C1=C2CO[C@H]4CC(=O)OC(C)(C)[C@@]24CC[C@@]13C` showed a pIC50 (Beta-secretase 1) of 7.11.
`C=C(C)[C@H]1O[C@H]2CC[C@@]3(C)[C@@](O)(CC[C@@]4(O)[C@@H]5OC(C)(C)[C@H]6C[C@@H]7C(=C)Cc8c(Cl)cc9[nH]c(c5c9c8[C@@]76O)[C@]34C)[C@]23O[C@@H]3[C@H]1O` gave an LC50 [2] of 3.2 µM.
Work on `C=C1[C@@]2(C)C[C@H]3C(=C)[C@]4(C=CC(=O)OC4(C)C)CC[C@]3(C)[C@@]13C(=O)O[C@@H](C)[C@@]3(O)C2=O` yielded an IC50 [3] of 2.52 µg/mL (≈ 5.91 µM).
With `C/C(=C\CC/C(=C/Cc1cc(O)ccc1O)C(=O)O)CC[C@@H](O)C(C)(C)O` the pIC50 [4] was 4.74, the pIC50 [5] was 4.84 and the pIC50 [6] was 4.95.
For `C/C(=C\CCC1=CC(c2cc(O)ccc2O)OC1=O)C(=O)O` (stereo unspecified), the pIC50 [7] was 4.51 and the pIC50 [8] was 4.18.
For `CC(=O)OC[C@@]1(C)[C@@H]2C[C@H](OC(C)=O)[C@@]3(C)Oc4cc(-c5ccccc5)oc(=O)c4[C@H](O)[C@@H]3[C@@]2(C)C=C[C@@H]1O`, the CC50 (MGC-803) was 19.1 µM.
In the case of `Cc1oc(=O)c2c(c1C)O[C@]1(C)[C@H](O)C(=O)[C@]3(O)C(C)(C)C(=O)C[C@@]3(O)[C@H](C)[C@H]1C2`, the MIC (Verticillium dahliae) was 12.5 µg/mL, the MIC (Phytophthora nicotianae) was 12.5 µg/mL and the MIC (Bacillus subtilis) was 12.5 µg/mL.
Work on `CC(=O)O[C@H]1C[C@@H](O)[C@@]2(C)[C@@H](CC[C@]3(C)[C@@H]2CC[C@]2(C)Oc4oc(C)cc(=O)c4C[C@@H]32)C1(C)C` yielded an MIC [9] of 26.4 µM (≈ 12.5 µg/mL), a pIC50 (KB) of 4.49 and a pIC50 (NCI-H187) of 4.49.
`CC(C)=CCC/C(C)=C/CCC1=C[C@]2(OC1=O)c1cc(O)ccc1OC(=O)[C@]2(CC/C=C(\C)CCC=C(C)C)CC(=O)c1cc(O)ccc1O` (racemic) showed a pIC50 [10] of 5.89 and a pIC50 (A549) of 5.15.
In the case of `CC1=C[C@H]2c3c(O)cc(C)c(C(=O)O)c3OC(C)(C)[C@H]2CC1` (relative stereo), the pIC50 (HL-60 [11]) was 4.62.
`C=C1[C@@]2(C)C[C@H]3[C@@]4(C)C(=CC[C@]3(C)[C@]1(C(=O)OC)C(=O)[C@@](C)(O)C2=O)C(C)(C)C(=O)C[C@H]4O` [BERKELEYTRIONE] gave a pIC50 (HL-60 [12]) of 5.47, a pIC50 (THP-1) of 5.37 and an IC50 at 24 h [13] of 10.5 µM.
